The target of experiment [1] is T1, cGAS (Homo sapiens, UniProt Q8N884). Briefly: Cellular assay to measure cGAS activity (IFNb AlphaLISA in THP1 cells stimulated by RDG-Adenovirus-GFP). The settings on record: PMA-differentiated THP1 cells, RDG-Adenovirus-GFP at 1000 MOI; inhibition of IFNb production as marker for cGAS activity. Format: cell-based. Set-up: host or cells: THP1 cells differentiated with PMA and stimulated with RDG-Adenovirus-GFP. In outline: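 PMA-differentiated THP1 cells were infected with RDG-Adenovirus-GFP at 1000 MOI for 4 h, then exposed overnight to test compounds. IFNb in the supernatant was quantified by AlphaLISA as a cGAS activity marker, and IC50 was fitted with a 4-parameter logistic equation.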
T1 sequence (Q8N884 whole entry): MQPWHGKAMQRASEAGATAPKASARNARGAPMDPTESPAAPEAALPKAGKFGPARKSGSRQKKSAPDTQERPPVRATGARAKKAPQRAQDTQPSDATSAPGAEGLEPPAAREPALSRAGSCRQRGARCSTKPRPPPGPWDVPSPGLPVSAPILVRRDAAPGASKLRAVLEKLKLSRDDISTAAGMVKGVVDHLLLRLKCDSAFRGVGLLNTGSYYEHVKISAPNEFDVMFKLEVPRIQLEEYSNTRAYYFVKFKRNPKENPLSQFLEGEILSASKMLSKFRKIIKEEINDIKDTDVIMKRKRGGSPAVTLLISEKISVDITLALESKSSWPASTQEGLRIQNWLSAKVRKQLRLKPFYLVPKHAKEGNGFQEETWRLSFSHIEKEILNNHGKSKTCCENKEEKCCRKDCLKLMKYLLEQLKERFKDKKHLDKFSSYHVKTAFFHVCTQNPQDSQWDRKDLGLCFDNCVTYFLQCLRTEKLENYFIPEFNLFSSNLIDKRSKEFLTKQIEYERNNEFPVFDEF

The target in experiment [2] is T1, cGAS. Nature of the experiment: In vitro inhibition assay of cGAS activity (cGAMP production, RapidFire mass spectrometry). Format: biochemical. Set-up: Insert cDNA encoding full-length of human cGAS; His6; made in house; host or cells: E. coli BL21(DE3). The following applies: 10 nM recombinant human cGAS, 60 nM 75-bp dsDNA, 50 μM ATP, 50 μM GTP, 3 hrs. The gist of the method: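 His6-tagged full-length human cGAS (10 nM, E. coli-expressed) was incubated for 3 hrs at ambient temperature with 60 nM 75-bp dsDNA, 50 μM ATP and 50 μM GTP in Tris pH 7.5/MgCl2 buffer with compound dilutions. cGAMP was quantified by RapidFire mass spectrometry against an internal standard, and IC50 was obtained by 4-parameter logistic fit.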

With `C[C@H]1CNC(=O)[C@H](C)c2c1[nH]c1c(Cl)c(Cl)cc(NC(=O)CO)c21` (racemic) [Example 158, trans-N-(7,8-dichloro-1,5-dimethyl-2-oxo-1,2,3,4,5,6-hexahydroazepino[4,5-b]indol-10-yl)-2-hydroxyacetamide], the IC50 – broadly, the concentration that inhibits the measured activity by half – amounted to 0.341 µM at cGAS [1] and 0.0197 µM on cGAS [2].
With `O=C1Cc2c([nH]c3c(Cl)c(Cl)cc(NC(=O)CO)c23)CCN1` [Example 24, N-(7,8-Dichloro-2-oxo-1,2,3,4,5,6-hexahydroazepino[4,5-b]indol-10-yl)-2-hydroxyacetamide], the IC50 against cGAS [1] came out at 6.91 µM; on cGAS [2] it was 0.0884 µM.
As for `C[C@@H]1C(=O)NC[C@H](C)c2[nH]c3c(Cl)c(Cl)cc(CC#N)c3c21` (single isomer, unassigned) [Example 151], the results for the IC50 against cGAS [1] and on cGAS [2] were 1.77 µM and 0.0197 µM, respectively.
As to `Cn1c2c(c3c(CC#N)cc(Cl)c(Cl)c31)CC(=O)NC[C@H]2CC(C)(C)O` (single isomer, unassigned) [Example 129], the IC50 on cGAS [1] is 1.32 µM; at cGAS [2], 1.55 µM.
For `C[C@H](O)C(=O)Nc1cc(Cl)c(Cl)c2[nH]c3c(c12)[C@@H](C)C(=O)NCC3(C)C` (single isomer, unassigned) [Example 181, (S)—N—((R)-7,8-Dichloro-1,5,5-trimethyl-2-oxo-1,2,3,4,5,6-hexahydroazepino[4,5-b]indol-10-yl)-2-hydroxypropanamide or (S)—N—((S)-7,8-dichloro-1,5,5-trimethyl-2-oxo-1,2,3,4,5,6-hexahydroazepino[4,5-b]indol-10-yl)-2-hydroxypropanamide] the same measures were above 10 µM and above 39.8 µM.
For `CCOc1cc(Cl)c(Cl)c2[nH]c3c(c12)[C@H](C)C(=O)NCC3` (single isomer, unassigned) [Example 15B], the IC50 on cGAS [1] is 8.14 µM; on cGAS [2], 1.09 µM.
On the same counts, the results for `O=C1Cc2c([nH]c3c(Cl)c(Cl)cc(-c4nc(CO)no4)c23)CCN1` [Example 26, 7,8-Dichloro-10-(3-(hydroxymethyl)-1,2,4-oxadiazol-5-yl)-3,4,5,6-tetrahydroazepino[4,5-b]indol-2(1H)-one] are above 10 µM and 0.133 µM.
Consider `C[C@H]1C(=O)NCCc2[nH]c3c(Cl)c(Cl)cc(NCC(F)(F)CO)c3c21` (single isomer, unassigned) [Example 69, (R)-7,8-Dichloro-10-((2,2-difluoro-3-hydroxypropyl)amino)-1-methyl-3,4,5,6-tetrahydroazepino[4,5-b]indol-2(1H)-one or (S)-7,8-Dichloro-10-((2,2-difluoro-3-hydroxypropyl)amino)-1-methyl-3,4,5,6-tetrahydroazepino[4,5-b]indol-2(1H)-one], for which the IC50 was above 10 µM against cGAS [1] and 0.63 µM at cGAS [2].
On the same counts, the results for `CN(C)C(=O)CC1CNC(=O)Cc2c1[nH]c1c(Cl)c(Cl)cc(CC#N)c21` (centres unmarked) [Example 117, 2-(7,8-Dichloro-10-(cyanomethyl)-2-oxo-1,2,3,4,5,6-hexahydroazepino[4,5-b]indol-5-yl)-N,N-dimethylacetamide] are 1.32 µM and 0.0186 µM.
For the compound `C[C@@H]1C(=O)NCCc2[nH]c3c(Cl)c(Cl)cc(NC(=O)CO)c3c21` (single isomer, unassigned) [Example 12A], the IC50 is 0.356 µM on cGAS [1] and 0.0163 µM on cGAS [2].
On the same counts, the results for `Cn1ncc(-c2cc(Cl)c(Cl)c3c2c2c(n3C)C(CCO)CNC(=O)C2)n1` (centres unmarked) [Example 127, 7,8-Dichloro-5-(2-hydroxyethyl)-6-methyl-10-(2-methyl-2H-1,2,3-triazol-4-yl)-3,4,5,6-tetrahydroazepino[4,5-b]indol-2(1H)-one] are 1.21 µM and 0.0344 µM.
Take `C[C@@H]1C(=O)NCCc2[nH]c3c(Cl)c(Cl)cc(OC[C@@H](C)O)c3c21` (single isomer, unassigned) [Example 83]: the figures for the IC50 against cGAS [1] and at cGAS [2] were above 10 µM and 4.74 µM, respectively.
For `C[C@@H]1C(=O)NCCc2[nH]c3c(Cl)c(Cl)cc(OCC#N)c3c21` (single isomer, unassigned) [Example 16A] the same measures were 0.871 µM and 0.00218 µM.
For the compound `C[C@H]1C(=O)NCCc2[nH]c3c(Cl)c(Cl)cc(N[C@@H]4CCOC4)c3c21` (single isomer, unassigned) [Example 64], the IC50 was determined as 2.42 µM against cGAS [1] and 0.0379 µM on cGAS [2].
For `COCCNc1cc(Cl)c(Cl)c2c1c1c(n2C)CCNC(=O)C1C` (centres unmarked) [Example 96, 7,8-Dichloro-10-((2-methoxyethyl)amino)-1,6-dimethyl-3,4,5,6-tetrahydroazepino[4,5-b]indol-2(1H)-one] the same measures were above 10 µM and 0.0186 µM.
As for `COCC[C@H]1CNC(=O)[C@@H](C)c2c1[nH]c1c(Cl)c(Cl)cc(NCCO)c21` (single isomer, unassigned) [Example 173], the IC50 turned out to be 1.61 µM against cGAS [1] and 0.0147 µM on cGAS [2].
On the same counts, the results for `COc1cc(Cl)c(Cl)c2[nH]c3c(c12)C(C)C(=O)NCC3` (centres unmarked) [Example 10, 7,8-Dichloro-10-methoxy-1-methyl-3,4,5,6-tetrahydroazepino[4,5-b]indol-2(1H)-one] are 2.73 µM and 0.124 µM.
For `Cn1c2c(c3c(OCC#N)cc(Cl)c(Cl)c31)CC(=O)NC[C@H]2CC(C)(C)O` (single isomer, unassigned) [Example 111, (R)-2-((7,8-Dichloro-5-(2-hydroxy-2-methylpropyl)-6-methyl-2-oxo-1,2,3,4,5,6-hexahydroazepino[4,5-b]indol-10-yl)oxy)acetonitrile or (S)-2-((7,8-Dichloro-5-(2-hydroxy-2-methylpropyl)-6-methyl-2-oxo-1,2,3,4,5,6-hexahydroazepino[4,5-b]indol-10-yl)oxy)acetonitrile] the same measures were 0.231 µM and 0.0131 µM.
As for `Cn1ncc(-c2cc(Cl)c(Cl)c3[nH]c4c(c23)CC(=O)NC[C@H]4CCO)n1` (single isomer, unassigned) [Example 8B], the IC50 on cGAS [1] was 3.14 µM; at cGAS [2] it was 0.214 µM.
With `Cn1c2c(c3c(OCC#N)cc(Cl)c(Cl)c31)CC(=O)NC[C@H]2CC(C)(C)O` (single isomer, unassigned) [Example 110, (R)-2-((7,8-Dichloro-5-(2-hydroxy-2-methylpropyl)-6-methyl-2-oxo-1,2,3,4,5,6-hexahydroazepino[4,5-b]indol-10-yl)oxy)acetonitrile or (S)-2-((7,8-Dichloro-5-(2-hydroxy-2-methylpropyl)-6-methyl-2-oxo-1,2,3,4,5,6-hexahydroazepino[4,5-b]indol-10-yl)oxy)acetonitrile], the IC50 against cGAS [1] was 3.12 µM; on cGAS [2] it was 2.61 µM.
In the case of `C[C@@H]1C(=O)NCCc2[nH]c3c(Cl)c(Cl)cc(N[C@H]4CCOC4)c3c21` (single isomer, unassigned) [Example 62], the IC50 at cGAS [1] stood at 1.9 µM; at cGAS [2] it was 0.0445 µM.
Regarding `O=C1Cc2c([nH]c3c(Cl)c(Cl)cc(OCCCO)c23)CCN1` [Example 23, 7,8-Dichloro-10-(3-hydroxypropoxy)-3,4,5,6-tetrahydroazepino[4,5-b]indol-2(1H)-one], the IC50 was 7.79 µM on cGAS [1] and 0.118 µM on cGAS [2].

Source of the values: US20240246979A1, “cGAS INHIBITORS” (Eli Lilly and Company, priority 2022, published 2024).
